Measured values from ChEMBL document CHEMBL5058564, “EUbOPEN Chemogenomics Library 2 (Incucyte)” (2022).

Experiments:
Assay type in all cases: toxicity, cell-based
[1] = system: HEK-293T; assay: Incucyte cell viability with HEK293T; details: human, 10 µM, compound concentration 10 uM
[2] = system: Fibroblast; assay: Incucyte cell viability with human fibroblast; details: 10 µM, compound concentration 10 uM
[3] = system: U2OS; assay: Incucyte cell viability with U2OS; details: human, 10 µM, compound concentration 10 uM
[4] = 6 h, replicate number 1, timepoint 6 hours
[5] = 12 h, replicate number 1, timepoint 12 hours
[6] = 18 h, replicate number 1, timepoint 18 hours
[7] = 24 h, replicate number 1, timepoint 24 hours
[8] = 12 h, replicate number 2, timepoint 12 hours
[9] = 0 h, replicate number 1, timepoint 0 hours
[10] = 24 h, replicate number 2, timepoint 24 hours
[11] = 18 h, replicate number 2, timepoint 18 hours
[12] = 0 h, replicate number 2, timepoint 0 hours
[13] = 6 h, replicate number 2, timepoint 6 hours
Further: unitless GR value; below 1 slowed growth and below 0 cell loss.

SMILES: COc1cc2nc(N3CCN(C(=O)c4ccco4)CC3)nc(N)c2cc1OC.Cl [PRAZOSIN HYDROCHLORIDE]
- Growth Rate [1, 4]: 0.79
- Growth Rate [1, 5]: 0.66
- Growth Rate [1, 6]: 0.88
- Growth Rate [1, 7]: 0.92
- Growth Rate [2, 4]: -0.46
- Growth Rate [2, 5]: 0.21
- Growth Rate [2, 8]: 0.92
- Growth Rate [2, 6]: 0.49
- Growth Rate [2, 7]: 0.44
- Growth Rate [3, 9]: -0.45
- Growth Rate [3, 4]: 0.78
- Growth Rate [3, 5]: 0.57
- Growth Rate [3, 8]: 0.91
- Growth Rate [3, 6]: 0.56
- Growth Rate [3, 7]: 0.77
- Growth Rate [3, 10]: 0.92

SMILES: CN(CCN1CCC(OC(=O)Nc2ccccc2-c2ccccc2)CC1)C(=O)c1ccc(CN2CCC(C(N)=O)CC2)cc1 [REVEFENACIN]
- Growth Rate [1, 4]: 0.97
- Growth Rate [1, 5]: 0.95
- Growth Rate [1, 8]: 0.59
- Growth Rate [1, 6]: 0.98
- Growth Rate [1, 11]: 0.74
- Growth Rate [1, 7]: 0.9
- Growth Rate [1, 10]: 0.78
- Growth Rate [2, 12]: 0.62
- Growth Rate [2, 13]: 0.71
- Growth Rate [2, 5]: 0.73
- Growth Rate [2, 8]: 0.65
- Growth Rate [2, 6]: 0.65
- Growth Rate [2, 11]: 0.9
- Growth Rate [2, 7]: 0.56
- Growth Rate [2, 10]: 0.97
- Growth Rate [3, 9]: 0.88
- Growth Rate [3, 12]: 0.11

SMILES: CCc1cc2cc(NS(=O)(=O)c3ccc(C#N)cc3)ccc2n(CC)c1=O
- Growth Rate [1, 9]: 1
- Growth Rate [1, 12]: 0.08
- Growth Rate [1, 4]: 0.21
- Growth Rate [1, 5]: 0.34
- Growth Rate [1, 8]: 0.96
- Growth Rate [1, 6]: 0.23
- Growth Rate [1, 11]: 0.84
- Growth Rate [1, 7]: 0.13
- Growth Rate [1, 10]: 0.59
- Growth Rate [2, 9]: 0.94
- Growth Rate [2, 4]: 0.31
- Growth Rate [2, 13]: -0.17
- Growth Rate [2, 5]: 0.22
- Growth Rate [2, 8]: 0.12
- Growth Rate [2, 6]: 0.07
- Growth Rate [2, 11]: 0.13
- Growth Rate [2, 7]: -0.17
- Growth Rate [2, 10]: 0.07
- Growth Rate [3, 9]: -0.59
- Growth Rate [3, 12]: -0.07
- Growth Rate [3, 4]: 0.95
- Growth Rate [3, 8]: 0.85
- Growth Rate [3, 6]: 0.95
- Growth Rate [3, 11]: 0.93
- Growth Rate [3, 7]: 0.96

SMILES: O=C(O)CCn1c2c(c3ccccc31)C[C@H](NS(=O)(=O)c1ccc(F)cc1)CC2 [RAMATROBAN]
- Growth Rate [1, 13]: 0.71
- Growth Rate [1, 5]: 0.91
- Growth Rate [1, 8]: 0.72
- Growth Rate [1, 11]: 0.76
- Growth Rate [2, 9]: -0.24
- Growth Rate [2, 12]: 0.9
- Growth Rate [2, 13]: 0.99
- Growth Rate [3, 12]: -1
- Growth Rate [3, 5]: 0.75
- Growth Rate [3, 8]: 0.9
- Growth Rate [3, 6]: 0.98
- Growth Rate [3, 11]: 0.9
- Growth Rate [3, 7]: 0.97

SMILES: Cc1ccccc1N1CCN(CCc2nnc3n2CCCC3)CC1.Cl [DAPIPRAZOLE HYDROCHLORIDE]
- Growth Rate [1, 12]: -0.18
- Growth Rate [1, 4]: 0.83
- Growth Rate [1, 6]: 0.93
- Growth Rate [1, 7]: 0.96
- Growth Rate [2, 9]: -0.42
- Growth Rate [2, 12]: 0.16
- Growth Rate [2, 13]: 0.85
- Growth Rate [2, 5]: 0.81
- Growth Rate [2, 7]: 0.68
- Growth Rate [3, 9]: 0.33
- Growth Rate [3, 4]: 0.94
- Growth Rate [3, 5]: 0.78

SMILES: Cc1ccc2c(c1CCC(=O)O)CC[C@@H](NS(=O)(=O)c1ccc(Cl)cc1)C2 [TERUTROBAN]
- Growth Rate [1, 9]: 0.06
- Growth Rate [1, 12]: 0.31
- Growth Rate [1, 4]: 0.87
- Growth Rate [1, 6]: 0.99
- Growth Rate [1, 11]: 0.97
- Growth Rate [1, 7]: 0.94
- Growth Rate [2, 9]: -0.56
- Growth Rate [2, 12]: 0
- Growth Rate [2, 7]: 0.83
- Growth Rate [3, 9]: -0.59
- Growth Rate [3, 12]: -1

SMILES: O=C(O)CCCCCC[C@H]1C(=O)NC(=O)N1CCC(O)C1CCCCC1 (some centres undefined)
- Growth Rate [1, 12]: 0.31
- Growth Rate [1, 4]: 0.84
- Growth Rate [1, 13]: 0.93
- Growth Rate [1, 5]: 0.73
- Growth Rate [1, 8]: 0.68
- Growth Rate [1, 6]: 0.88
- Growth Rate [1, 11]: 0.81
- Growth Rate [1, 7]: 0.91
- Growth Rate [2, 9]: 0.25
- Growth Rate [2, 12]: 0.26
- Growth Rate [2, 8]: 0.91
- Growth Rate [3, 9]: -0.44
- Growth Rate [3, 4]: 0.65
- Growth Rate [3, 6]: 0.81

SMILES: O=C(O)COc1cccc(-c2ocnc2-c2nc(-c3ccccc3)c(-c3ccccc3)o2)c1
- Growth Rate [1, 9]: 0.53
- Growth Rate [1, 12]: -0.17
- Growth Rate [1, 5]: 0.79
- Growth Rate [1, 6]: 0.67
- Growth Rate [1, 7]: 0.9
- Growth Rate [1, 10]: 0.98
- Growth Rate [2, 9]: 0.04
- Growth Rate [2, 12]: 0.64
- Growth Rate [2, 4]: 0.49
- Growth Rate [2, 13]: 0.07
- Growth Rate [2, 5]: 0.59
- Growth Rate [2, 8]: 0.91
- Growth Rate [2, 6]: 0.64
- Growth Rate [2, 7]: 0.59
- Growth Rate [3, 9]: -0.56
- Growth Rate [3, 12]: 0.7
- Growth Rate [3, 5]: 0.74
- Growth Rate [3, 6]: 0.88
- Growth Rate [3, 7]: 1

SMILES: Cc1onc(-c2ccccc2Cl)c1C(=O)N(C)c1ccc(Cl)cc1
- Growth Rate [1, 12]: 0.62
- Growth Rate [2, 9]: -0.53
- Growth Rate [2, 12]: 0.86
- Growth Rate [3, 13]: 0.56
- Growth Rate [3, 8]: 0.67
- Growth Rate [3, 11]: 0.85
- Growth Rate [3, 10]: 0.96
